Reference: US20230277553A1, “THERAPEUTIC COMPOSITION OF CURE-PRO COMPOUNDS FOR TARGETED DEGRADATION OF BET DOMAIN PROTEINS, AND METHODS OF MAKING AND USAGE” (CORNELL UNIVERSITY, priority 2020, published 2023)
“Also recorded” adds a separate entry of the source.

Assays:
Assay type in all cases: cell-based
caspase 3/7 = test: Caspase-Glo 3/7 assay, Namalwa cells; settings: 24 hours, 1:1 with 8047
Method: Caspase-glo® assay (Promega) was conducted following the manufacturer's recommendations. Cells were seeded at a density of 5000 cells/well in a white 96 well plates (Corning, #3917) in a total volume of 100 μl with respective monomers, combinations of BRD ligands together with E3 ligase ligands or vehicle control treatment. After a 24 h incubation, 100 μl of the […] substrate was added per well and luminescence was read on a Spectramax M5 (Molecular Devices).
Namalwa cells (5×104) were treated for 24 hours with the compounds solubilized in DMSO. FIG. 57 is a bar graph depiction of fold increase of apoptosis assessed via caspase 3/7 activity using the Caspase-glo assay (Promega) described above.
Molm-13 (FIG. 76A) or Namalwa (FIG. 76B) cells (5×10^4) were treated for 24 hours with the compounds solubilized in DMSO in white 96 well plates (10 nM-10 μM solubilized in DMSO). FIG. 76 is a bar graph depiction of fold increase of apoptosis assessed via caspase 3/7 activity using the Caspase-glo assay (Promega) described above.

BRD4 [1] = molecular target: T1, BRD4 (Homo sapiens, UniProt O60885); test: Summary of BRD4 degradation by CURE-PRO pairs, estimated from Western Blot or WES (Proteinsimple); design: endogenous in cells; settings: Table 1; CRBN ligand, second drawing (8047)
Text: A black check mark indicates efficacy of 30% to 70% or higher protein degradation.

BRD4 [2] = molecular target: T1, BRD4; test: CURE-PRO-mediated BRD4 degradation, Western blot, HeLa cells; design: endogenous in cells; host or cells: HeLa; settings: 24 h
How it was run: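 HeLa cells treated 24 h with compounds in DMSO (1-10 μM, 10 μM or 100 μM each; paired monomers combined 1:1), optional 15-min pretreatment with pomalidomide, VHL298, Nutlin3a (10 μM) or MG-132/carfilzomib (1 μM). RIPA lysates, 10-20 μg protein immunoblotted for BRD4 with β-actin, ECL detection.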

Namalwa cells = test: CellTiter-Glo cell viability, Namalwa cells; settings: 72 hours, 1:1 with 8047, 10 nM-10 μM each
Method: CellTiter-Glo® 2.0 Cell Viability Assay (Promega) was carried out following the manufacturer's recommendations. Cells were seeded at a density of 1000 cells/well in a white 96 well plates (Corning, #3917) in a total volume of 100 μl with respective monomers, combinations of BRD ligands together with E3 ligase ligands or vehicle control treatment. After a 72 h incubation, 100 ul of the CellTiter-Glo® substrate was added per well and luminescence was read on a Spectramax M5 (Molecular Devices). Dose-response curves were generated using Graphpad Prism software.
Namalwa cells (1×104) were treated for 72 hours with the compounds solubilized in DMSO. Compounds were added at 10 nM-10 μM each. Cellular viability was determined using the CellTiter-Glo® Luminescent Cell Viability Assay (Promega) described above. FIG. 56 depicts the CURE-PRO-mediated loss of cellular viability for the BRD-E72 monomer (JQ1 derivatives comprising of boronic acid linkers), and the CRBN ligand, 8047 (a pomalidomide derivative comprising diol linkers) combined in a 1:1 ratio.

BRD4 [3] = molecular target: T1, BRD4; test: CURE-PRO-mediated BRD4 degradation, WES (ProteinSimple), HeLa cells; design: endogenous in cells; host or cells: HeLa; settings: 10 μM each, 4-24 h with washout after 4 h, or 100 nM-10 μM
Method: All cell lines were purchased from ATCC or DSMZ and grown at 37° C. with 5% CO2. Human HeLa cells were cultured in complete growth medium (Dulbecco's modified Eagle's medium (DMEM) supplemented with 10% FBS); MCF7 cells were cultured in complete growth medium (Dulbecco's modified Eagle's medium (DMEM) supplemented with 10% FBS and 0.01 mg/ml human recombinant insulin (Sigma Aldrich); Namalwa and MOLM-13 cells were cultured in complete growth medium (RPMI 1640 medium supplemented with 10% FBS); MV-4-11 were cultured in complete growth medium (Iscove's Modified Dulbecco's medium, supplemented with 10% FBS); HCT116 cells were cultured in complete growth medium (McCoy's 5a Medium supplemented with 10% FBS). For cellular degradation of BRD4 studies, cells were seeded in a 12-well plate at 70-80% confluency, allowed to attach overnight, and incubated with the indicated compounds for the indicated time. When indicated, a 15-minute pretreatment with 10 μM pomalidomide, 10 μM VHL298, 10 μM Nutlin3a, 1 μM MG-132 or 1 μM Carfilzomib was performed before the addition of CURE-PROs. For washout studies, after CURE-PRO treatment, media was aspirated and incubated with complete medium for the indicated time before lysis.
Anti-BRD4 (13440, 1:1,000 dilution for Western Blot and 1:25 dilution for ProteinSimple); Anti-BRD2 (5848 1:1,000 dilution for Western Blot and 1:25 dilution for ProteinSimple); β-Actin (3700, 1:2,000 dilution for Western Blot), β-Actin (4970, 1:50 dilution for ProteinSimple) anti-mouse IgG-HRP, and anti-rabbit IgG-HRP antibodies were purchased Cell Signaling Technology. Anti-GAPDH (600-401-A33, 1:100 dilution for ProteinSimple) was purchased from Rockland Immunochemicals, Inc. Anti-BRD3 (sc-81202, 1:200 dilution for Western Blot) was purchased from Santa Cruz Biotechnology.
WES Simple analysis was performed on WES system (ProteinSimple-Biotechne) according to the manufacturer's instructions. Total protein concentrations of cell lysates were determined by the Pierce BCA kit (Thermo Fisher). 3 μL of 0.3 μg/μL of the protein lysate was loaded onto a 12- to 230-kDa WES assay plate (ProteinSimple) where 300 nL sample was withdrawn through a capillary, subjected to electrophoretic separation of proteins by size, and followed by the simultaneous, HRP-based detection of proteins using the Anti-Rabbit Detection Module (Proteinsimple: #DM-001). The electropherograms were checked then the automatic peak detection was manually corrected if it was required.
HeLa cells (2.5×10^6) were treated for 4-24 hours with the compounds solubilized in DMSO. After 4 hours, indicated points were washed and cells were left in full growth media. Compounds were added at 10 μM each. […]

CCNC(=O)C[C@@H]1N=C(c2ccc(Cl)cc2)c2cc(-c3cccc(B(O)O)c3)ccc2-n2c(C)nnc21 [BRD-E72, (3-((4S)-6-(4-chlorophenyl)-4-(2-(ethylamino)-2-oxoethyl)-1-methyl-4H-benzo[f][1,2,4]triazolo[4,3-a][1,4]diazepin-8-yl)phenyl)boronic acid]
Caspase 3/7 activation, co-dosed with CRBN ligand 8047 (caspase 3/7): demonstrates activation of caspase 3/7; also recorded: marked caspase activation | Degradation of BRD4 in combination with CRBN ligand [drawing 371] (BRD4 [1]): ✓ (A black check mark indicates efficacy of 30% to 70% or higher protein degradation) | BRD4 degradation, BRD ligand with pomalidomide (no 8047) (BRD4 [2]; 10 μM): failed to induce BRD4 degradation | BRD4 degradation, BRD ligand alone (BRD4 [2]; BRD monomer alone, Western blot): no change in expression | Loss of cell viability, co-dosed with CRBN ligand 8047 (Namalwa cells): increase in the loss of viability compared to monomer treatment alone; also recorded: marked loss in cell viability | BRD4 degradation, co-dosing with CRBN ligand 8047 (WES) (BRD4 [3]): marked BRD4 degradation after 4h with sustained degradation for up to 8h after drugs are washed out
